# Laboratory results taken from US7531187B2, “Synergistic insecticidal composition containing chloronicotynyle and pyrethroids compounds” (United Phosphorus, Ltd., priority 2004, dated 2009).
# Read-outs that look alike come from different tables or passages of the source.
# What was measured:
# [1] = test system: Brown plant hoppers and Green plant hoppers; assay: Treated paddy leaf bioassay, larval mortality, Colby synergism (Examples 13-14); type: in vivo
# Method: In this evaluation, Brown plant hoppers and Green plant hoppers are obtained from laboratory colonies. Paddy leaves are immersed in 1:1 v/v, acetone/water solutions of the test compound, or solution of a combination of the test compounds for a period of about 4 seconds. Following immersion, leaves are allowed to air-dry for 2-3 hours. Plastic bioassay trays containing multiple open-faced wells (4.0×4.0×2.5 cm) are used. Cut portions of a treated leaf, a moistened cotton dental wick and a single third-instar larva are placed into each well. These wells are covered with an adhesive vented clear plastic sheet which is held under constant fluorescent light at about 30° C. for a predetermined period of time. Larval mortality/morbidity is evaluated at 5 days after treatment. All treatments are replicated 3-4 fold in a randomized complete block design with 15-30 larvae per treatment. Using conventional log-probit analysis, the LC50 of each treatment is determined.
# Synergism can be calculated by using the Colby's method i.e. the expected (or predicted) response of the combination is calculated by taking the product of the observed response for each individual component of the combination when applied alone divided by 100 and subtracting this value from the sum of observed response for each component when applied alone. Synergism of the combination is then determined by comparing the observed response of the combination to the expected (or predicted) response as calculated from the observed response of each individual component alone. If the observed response of the combination is greater than the expected (or predicted) response, then the combination is said to be synergistic and falls within the definition of synergistic effect. (Colby, S. R., Weeds, 1967(15), p. 20-22)
# rats [2] = details: cited from earlier work
# [3] = cited from earlier work; for pH of optimum stability: more stable in acid than in alkaline media
# domestic fowl = details: cited from earlier work
# rats [4] = details: cited from earlier work; remark: listed apart in the source
# [5] = cited from earlier work
# flies = details: cited from earlier work
# [6] = cited from earlier work; remark: listed apart in the source
# [7] = in vivo; cited from earlier work
# rabbits = details: cited from earlier work
# rats [8] = details: cited from earlier work; remark: listed apart in the source
# [9] = test system: cockroaches and other crawling insets; details: 100 mg a.i. (as WP)/m^2; cited from earlier work
# chicken = details: cis/trans ratio of 40:60; cited from earlier work
# mice = details: cited from earlier work
# Japanese quail = details: cis/trans ratio of 40:60; cited from earlier work
compound,measurement,setting,value
"CC1(C)C(C=C(Cl)Cl)C1C(=O)OC(C#N)c1cccc(Oc2ccccc2)c1 (racemic) [Cypermethrin, (RS)-α-cyano-3-phenoxybenzyl (1RS, 3RS; IRS, 3SR)-3-(2,2-dichlorovinyl)-2,2-dimethyl cyclopropane carboxylate]",Observed Mortality %,"[1]; Table 2, Cypermethrin 80 ppm alone",52.5%
same,Observed Mortality %,"[1]; Table 2, Cypermethrin 85 ppm alone",60%
same,Observed Mortality %,"[1]; Table 2, Cypermethrin 90 ppm alone",70%
same,Observed Mortality %,"[1]; Table 3, Cypermethrin 80 ppm alone",60.0%
same,Observed Mortality %,"[1]; Table 3, Cypermethrin 85 ppm alone",65%
same,Observed Mortality %,"[1]; Table 3, Cypermethrin 90 ppm alone",72.0%
"CC(C)[C@@H](C(=O)O[C@@H](C#N)c1cccc(Oc2ccccc2)c1)c1ccc(Cl)cc1 (racemic) [Fenvalerate, (RS)-α-cyano-3-phenoxybenzyl (RS)-2-(4-chlorophenyl)-3-methylbutyrate]",acute oral LD50,rats [2]; rats,451 mg/kg
same,pH of optimum stability,[3],4
same,acute oral LD50,domestic fowl,> 1600 mg/kg
same,Acute percutaneous LD50,rats [4]; rats,> 5000 mg/kg
same,solubility in water,[5]; 20° C.,< 1 µg/mL
same,duration of control of flies in cattle sheds,flies; 110 mg/aquare meter wall,60 days
same,"Solubility in acetone, chloroform, cyclohexanone, ethanol, xylene",[6]; 23° C.,> 1 kg/kg
same,Solubility in hexane,[6]; 23° C.,155 g/kg
"O=[N+]([O-])NC1=NCCN1Cc1ccc(Cl)nc1 [Imidacloprid, 1-(6-chloro-3-pyridylmethyl)-N-nitroimidazolidin-2-yldeneamine]",stability to hydrolysis,[3]; pH 5,Stable
same,skin sensitisation,[7],Not a skin sensitiser
same,Acute percutaneous LD50 (24 h),"rats [4]; rats, 24 h",> 5000 mg/kg
same,irritation to skin and eyes,"rabbits; rabbit, in vivo",Non irritating
same,Observed Mortality %,"[1]; Table 2, Imidacloprid 24 ppm alone, 5 days after treatment",55.00%
same,Observed Mortality %,"[1]; Table 2, Imidacloprid 27 ppm alone",69.25%
same,Observed Mortality %,"[1]; Table 2, Imidacloprid 30 ppm alone",72.10%
same,inhalation LC50 (4 h),"rats [8]; female rats, aerosol",> 5323 mg/m^3 air
same,solubility in n.hexane,[6]; 20° C.,< 100 µg/mL
"CC1(C)C(C=C(Cl)Cl)C1C(=O)OCc1cccc(Oc2ccccc2)c1 (stereo not drawn) [Permethrin, 3-phenoxybenzyl(1RS,3 RS; 1 RS, 3SR)-3-(2,2-dichlorovinyl)-2,2-dimethylcyclopropanecarboxylate]",Typical oral LD50,"rats [2]; rats, cis/trans ratio of 40:60",430 to 4000 mg/kg
same,stability to heat,[3]; 50° C.,≥ 2 years
same,"photochemical stability, in words",[3]; laboratory studies,Some photochemical degradation
same,pH of optimum stability,[3],4
same,duration of control of cockroaches and other crawling insets,[9],> 120 days
same,Typical oral LD50,chicken,> 300 mg/kg
same,duration of residual control of biting flies in animal housing,flies; 200 mg a.i. (as EC)/square meter wall or 30 mg a.i. (as WP)/m^2 wall,< 60 days
same,Typical oral LD50,"mice; mice, cis/trans ratio of 40:60",540 to 2690 mg/kg
same,Solubility in Xylene,[6]; 25° C.,≥ 1 kg/kg
same,Solubility in hexane,[6]; 25° C.,> 1 kg/kg
same,Solubility in methanol,[6]; 25° C.,258 g/kg
same,Typical oral LD50,Japanese quail,> 13500 mg/kg
(E)-N′-[(6-chloro-3-pyridyl)methyl]-N-cyano-N-methylacetamidine [Acetamiprid],acute oral LD50,rats [2]; female rats,146 mg/kg
same,acute oral LD50,rats [2]; male rats,217 mg/kg
same,stability in buffered solutions,"[3]; pH 4,5,7",Stable
same,stability in buffered solutions,[3]; pH 9 and 45° C.,Degraded slowly
same,stability under sunlight,[3]; sunlight,Stable
same,Acute percutaneous LD50,rats [4]; male and female rats,> 2000 mg/kg
same,irritation to skin and eyes,rabbits; rabbits,Non irritating
same,Observed Mortality %,"[1]; Table 3, Acetamiprid 24 ppm alone",47.30%
same,Observed Mortality %,"[1]; Table 3, Acetamiprid 27 ppm alone",69.25%
same,Observed Mortality %,"[1]; Table 3, Acetamiprid 30 ppm alone",72.1%
same,solubility in water,[5]; 25° C.,4200 µg/mL
same,inhalation LC50 (4 h),rats [8]; male and female rats,> 0.29 mg/L
same,acute oral LD50,mice; female mice,184 mg/kg
same,acute oral LD50,mice; male mice,198 mg/kg
same,"solubility in organic solvents, in words","[6]; acetone, methanol, ethanol, dichloromethane, chloroform, acetonitrile and tetrahydrofuron",Soluble
